# Results: patent US8192962B2, “Processes for detecting toxic substances” (Daikin Industries, Ltd., priority 2001, dated 2012)
# Tested on: Stress protein genes
# Experiment: DNA chip mRNA expression in yeast, stress protein genes (Table 6)
# Format: cell-based, Saccharomyces cerevisiae S288C
# In short: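 Ratios compare mRNA levels in stressed and control S. cerevisiae. Each toxicant was applied for two hours to log-phase cultures at 25° C. at a sub-lethal, growth-inhibiting level; fluorescent cDNA (Cy3- or Cy5-dUTP) was hybridized to a genome-wide yeast chip for over 12 h at 65° C.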
smiles,measurement,setting,value
"CCCCCCCCCCCCc1ccc(S(=O)(=O)[O-])cc1.[Na+] [(17), sodium dodecylbenzosulfonate]",The level of expressed mRNA in the presence of chemical substance/The level of expressed mRNA in the absence of chemical substance,yeast gene YAL005C,0.8
same,The level of expressed mRNA in the presence of chemical substance/The level of expressed mRNA in the absence of chemical substance,yeast gene YAL015C,1.1
same,The level of expressed mRNA in the presence of chemical substance/The level of expressed mRNA in the absence of chemical substance,yeast gene YBL075C,1.2
same,The level of expressed mRNA in the presence of chemical substance/The level of expressed mRNA in the absence of chemical substance,yeast gene YBL093C,1.4
same,The level of expressed mRNA in the presence of chemical substance/The level of expressed mRNA in the absence of chemical substance,yeast gene YBR044C,0.9
same,The level of expressed mRNA in the presence of chemical substance/The level of expressed mRNA in the absence of chemical substance,yeast gene YBR054W,0.7
same,The level of expressed mRNA in the presence of chemical substance/The level of expressed mRNA in the absence of chemical substance,yeast gene YBR067C,0.5
same,The level of expressed mRNA in the presence of chemical substance/The level of expressed mRNA in the absence of chemical substance,yeast gene YBR072W,1.8
same,The level of expressed mRNA in the presence of chemical substance/The level of expressed mRNA in the absence of chemical substance,yeast gene YBR126C,1.5
same,The level of expressed mRNA in the presence of chemical substance/The level of expressed mRNA in the absence of chemical substance,yeast gene YBR169C,1.3
same,The level of expressed mRNA in the presence of chemical substance/The level of expressed mRNA in the absence of chemical substance,yeast gene YCL035C,2.6
same,The level of expressed mRNA in the presence of chemical substance/The level of expressed mRNA in the absence of chemical substance,yeast gene YCR021C,0.7
same,The level of expressed mRNA in the presence of chemical substance/The level of expressed mRNA in the absence of chemical substance,yeast gene YCR060W,1.2
same,The level of expressed mRNA in the presence of chemical substance/The level of expressed mRNA in the absence of chemical substance,yeast gene YCR083W,1.3
same,The level of expressed mRNA in the presence of chemical substance/The level of expressed mRNA in the absence of chemical substance,yeast gene YDL022W,1.0
same,The level of expressed mRNA in the presence of chemical substance/The level of expressed mRNA in the absence of chemical substance,yeast gene YDL025C,1.0
same,The level of expressed mRNA in the presence of chemical substance/The level of expressed mRNA in the absence of chemical substance,yeast gene YDR033W,0.7
same,The level of expressed mRNA in the presence of chemical substance/The level of expressed mRNA in the absence of chemical substance,yeast gene YDR077W,1.4
same,The level of expressed mRNA in the presence of chemical substance/The level of expressed mRNA in the absence of chemical substance,yeast gene YDR098C,1.0
same,The level of expressed mRNA in the presence of chemical substance/The level of expressed mRNA in the absence of chemical substance,yeast gene YDR155C,1.2
same,The level of expressed mRNA in the presence of chemical substance/The level of expressed mRNA in the absence of chemical substance,yeast gene YDR258C,1.3
same,The level of expressed mRNA in the presence of chemical substance/The level of expressed mRNA in the absence of chemical substance,yeast gene YDR293C,1.4
same,The level of expressed mRNA in the presence of chemical substance/The level of expressed mRNA in the absence of chemical substance,yeast gene YDR436W,0.9
same,The level of expressed mRNA in the presence of chemical substance/The level of expressed mRNA in the absence of chemical substance,yeast gene YDR513W,1.3
same,The level of expressed mRNA in the presence of chemical substance/The level of expressed mRNA in the absence of chemical substance,yeast gene YDR519W,1.8
same,The level of expressed mRNA in the presence of chemical substance/The level of expressed mRNA in the absence of chemical substance,yeast gene YEL030W,0.9
same,The level of expressed mRNA in the presence of chemical substance/The level of expressed mRNA in the absence of chemical substance,yeast gene YEL039C,0.7
same,The level of expressed mRNA in the presence of chemical substance/The level of expressed mRNA in the absence of chemical substance,yeast gene YER042W,0.7
same,The level of expressed mRNA in the presence of chemical substance/The level of expressed mRNA in the absence of chemical substance,yeast gene YER057C,1.1
same,The level of expressed mRNA in the presence of chemical substance/The level of expressed mRNA in the absence of chemical substance,yeast gene YER103W,1.4
same,The level of expressed mRNA in the presence of chemical substance/The level of expressed mRNA in the absence of chemical substance,yeast gene YER125W,1.0
same,The level of expressed mRNA in the presence of chemical substance/The level of expressed mRNA in the absence of chemical substance,yeast gene YFL014W,1.5
same,The level of expressed mRNA in the presence of chemical substance/The level of expressed mRNA in the absence of chemical substance,yeast gene YFL016C,1.2
same,The level of expressed mRNA in the presence of chemical substance/The level of expressed mRNA in the absence of chemical substance,yeast gene YFL020C,1.5
same,The level of expressed mRNA in the presence of chemical substance/The level of expressed mRNA in the absence of chemical substance,yeast gene YFR052W,1.2
same,The level of expressed mRNA in the presence of chemical substance/The level of expressed mRNA in the absence of chemical substance,yeast gene YGL073W,2.5
same,The level of expressed mRNA in the presence of chemical substance/The level of expressed mRNA in the absence of chemical substance,yeast gene YGL115W,0.8
same,The level of expressed mRNA in the presence of chemical substance/The level of expressed mRNA in the absence of chemical substance,yeast gene YGL181W,1.0
same,The level of expressed mRNA in the presence of chemical substance/The level of expressed mRNA in the absence of chemical substance,yeast gene YGR088W,0.9
same,The level of expressed mRNA in the presence of chemical substance/The level of expressed mRNA in the absence of chemical substance,yeast gene YHL028W,1.6
same,The level of expressed mRNA in the presence of chemical substance/The level of expressed mRNA in the absence of chemical substance,yeast gene YHL046C,0.9
same,The level of expressed mRNA in the presence of chemical substance/The level of expressed mRNA in the absence of chemical substance,yeast gene YHR030C,2.0
same,The level of expressed mRNA in the presence of chemical substance/The level of expressed mRNA in the absence of chemical substance,yeast gene YHR057C,1.6
same,The level of expressed mRNA in the presence of chemical substance/The level of expressed mRNA in the absence of chemical substance,yeast gene YHR104W,1.9
same,The level of expressed mRNA in the presence of chemical substance/The level of expressed mRNA in the absence of chemical substance,yeast gene YIL011W,0.8
same,The level of expressed mRNA in the presence of chemical substance/The level of expressed mRNA in the absence of chemical substance,yeast gene YIL033C,1.0
same,The level of expressed mRNA in the presence of chemical substance/The level of expressed mRNA in the absence of chemical substance,yeast gene YIR037W,1.7
same,The level of expressed mRNA in the presence of chemical substance/The level of expressed mRNA in the absence of chemical substance,yeast gene YIR038C,2.8
same,The level of expressed mRNA in the presence of chemical substance/The level of expressed mRNA in the absence of chemical substance,yeast gene YJL128C,1.0
same,The level of expressed mRNA in the presence of chemical substance/The level of expressed mRNA in the absence of chemical substance,yeast gene YJL158C,1.4
same,The level of expressed mRNA in the presence of chemical substance/The level of expressed mRNA in the absence of chemical substance,yeast gene YJL159W,1.4
same,The level of expressed mRNA in the presence of chemical substance/The level of expressed mRNA in the absence of chemical substance,yeast gene YJL165C,1.3
same,The level of expressed mRNA in the presence of chemical substance/The level of expressed mRNA in the absence of chemical substance,yeast gene YJR045C,0.7
same,The level of expressed mRNA in the presence of chemical substance/The level of expressed mRNA in the absence of chemical substance,yeast gene YJR090C,1.1
same,The level of expressed mRNA in the presence of chemical substance/The level of expressed mRNA in the absence of chemical substance,yeast gene YKL161C,1.4
same,The level of expressed mRNA in the presence of chemical substance/The level of expressed mRNA in the absence of chemical substance,yeast gene YKL163W,0.8
same,The level of expressed mRNA in the presence of chemical substance/The level of expressed mRNA in the absence of chemical substance,yeast gene YKL164C,0.8
same,The level of expressed mRNA in the presence of chemical substance/The level of expressed mRNA in the absence of chemical substance,yeast gene YKL210W,0.7
same,The level of expressed mRNA in the presence of chemical substance/The level of expressed mRNA in the absence of chemical substance,yeast gene YKR053C,2.8
same,The level of expressed mRNA in the presence of chemical substance/The level of expressed mRNA in the absence of chemical substance,yeast gene YLL024C,0.5
same,The level of expressed mRNA in the presence of chemical substance/The level of expressed mRNA in the absence of chemical substance,yeast gene YLL026W,1.7
same,The level of expressed mRNA in the presence of chemical substance/The level of expressed mRNA in the absence of chemical substance,yeast gene YLL039C,1.6
same,The level of expressed mRNA in the presence of chemical substance/The level of expressed mRNA in the absence of chemical substance,yeast gene YLL060C,1.9
same,The level of expressed mRNA in the presence of chemical substance/The level of expressed mRNA in the absence of chemical substance,yeast gene YLR006C,1.6
same,The level of expressed mRNA in the presence of chemical substance/The level of expressed mRNA in the absence of chemical substance,yeast gene YLR109W,1.1
same,The level of expressed mRNA in the presence of chemical substance/The level of expressed mRNA in the absence of chemical substance,yeast gene YLR259C,0.8
same,The level of expressed mRNA in the presence of chemical substance/The level of expressed mRNA in the absence of chemical substance,yeast gene YML007W,1.0
same,The level of expressed mRNA in the presence of chemical substance/The level of expressed mRNA in the absence of chemical substance,yeast gene YML070W,1.2
same,The level of expressed mRNA in the presence of chemical substance/The level of expressed mRNA in the absence of chemical substance,yeast gene YMR021C,3.3
same,The level of expressed mRNA in the presence of chemical substance/The level of expressed mRNA in the absence of chemical substance,yeast gene YMR173W,1.9
same,The level of expressed mRNA in the presence of chemical substance/The level of expressed mRNA in the absence of chemical substance,yeast gene YMR186W,0.7
same,The level of expressed mRNA in the presence of chemical substance/The level of expressed mRNA in the absence of chemical substance,yeast gene YNL064C,0.7
same,The level of expressed mRNA in the presence of chemical substance/The level of expressed mRNA in the absence of chemical substance,yeast gene YNL160W,1.0
same,The level of expressed mRNA in the presence of chemical substance/The level of expressed mRNA in the absence of chemical substance,yeast gene YNL241C,1.0
same,The level of expressed mRNA in the presence of chemical substance/The level of expressed mRNA in the absence of chemical substance,yeast gene YNR076W,1.5
same,The level of expressed mRNA in the presence of chemical substance/The level of expressed mRNA in the absence of chemical substance,yeast gene YOL064C,1.2
same,The level of expressed mRNA in the presence of chemical substance/The level of expressed mRNA in the absence of chemical substance,yeast gene YOL161C,1.1
same,The level of expressed mRNA in the presence of chemical substance/The level of expressed mRNA in the absence of chemical substance,yeast gene YOR008C,0.8
same,The level of expressed mRNA in the presence of chemical substance/The level of expressed mRNA in the absence of chemical substance,yeast gene YOR009W,0.9
same,The level of expressed mRNA in the presence of chemical substance/The level of expressed mRNA in the absence of chemical substance,yeast gene YOR010C,1.4
same,The level of expressed mRNA in the presence of chemical substance/The level of expressed mRNA in the absence of chemical substance,yeast gene YOR027W,0.9
same,The level of expressed mRNA in the presence of chemical substance/The level of expressed mRNA in the absence of chemical substance,yeast gene YOR208W,1.6
same,The level of expressed mRNA in the presence of chemical substance/The level of expressed mRNA in the absence of chemical substance,yeast gene YPL059W,1.8
same,The level of expressed mRNA in the presence of chemical substance/The level of expressed mRNA in the absence of chemical substance,yeast gene YPL106C,0.5
same,The level of expressed mRNA in the presence of chemical substance/The level of expressed mRNA in the absence of chemical substance,yeast gene YPL140C,0.9
same,The level of expressed mRNA in the presence of chemical substance/The level of expressed mRNA in the absence of chemical substance,yeast gene YPL194W,1.0
same,The level of expressed mRNA in the presence of chemical substance/The level of expressed mRNA in the absence of chemical substance,yeast gene YPL223C,1.0
same,The level of expressed mRNA in the presence of chemical substance/The level of expressed mRNA in the absence of chemical substance,yeast gene YPL240C,0.8
same,The level of expressed mRNA in the presence of chemical substance/The level of expressed mRNA in the absence of chemical substance,yeast gene YPR005C,1.0
same,The level of expressed mRNA in the presence of chemical substance/The level of expressed mRNA in the absence of chemical substance,yeast gene YPR026W,0.9
